What was measured:
[1] = test system: h-Tel quadruplex DNA, 5'-biotin-d[AG3(T2AG3)3] (DNA, G4) AGGGTTAGGGTTAGGGTTAGGG; experiment: SPR
[2] = test system: hairpin duplex, 5'-biotin-CGA3T3C(CT)2GA3T3CG (DNA, hairpin) CGAAATTTCCTCTGAAATTTCG; experiment: SPR
[3] = target: T1, human recombinant M2 muscarinic receptor (Homo sapiens, UniProt P08172); experiment: M2 muscarinic receptor inhibition assay; format: binding; settings: read-out: Muscarinic (M2) % inh @1 μM
T1 sequence (P08172 1-466): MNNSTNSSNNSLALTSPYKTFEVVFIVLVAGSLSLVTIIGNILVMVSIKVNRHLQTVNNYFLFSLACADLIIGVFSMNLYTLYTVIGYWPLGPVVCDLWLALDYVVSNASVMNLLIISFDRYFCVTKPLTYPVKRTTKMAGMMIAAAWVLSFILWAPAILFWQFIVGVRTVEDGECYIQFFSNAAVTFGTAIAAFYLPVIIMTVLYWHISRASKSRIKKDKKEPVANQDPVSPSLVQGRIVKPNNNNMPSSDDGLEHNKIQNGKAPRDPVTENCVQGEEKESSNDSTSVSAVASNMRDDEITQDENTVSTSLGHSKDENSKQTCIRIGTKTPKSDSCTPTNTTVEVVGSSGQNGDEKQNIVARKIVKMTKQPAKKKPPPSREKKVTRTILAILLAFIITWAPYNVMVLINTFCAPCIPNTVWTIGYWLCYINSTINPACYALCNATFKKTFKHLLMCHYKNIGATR
Experimental: (§1) hEGR study and the M2 and the β2 receptor inhibition assay were performed as previously reported.
(§2) The new G-quadruplex ligands were designed in an attempt to obtain molecules with improved toxicological and on-target profiles, but maintaining the same favorable chemical and pharmacological features of the lead compound 1. With the aim of selecting the best variants, a step by step comparative analysis of their off- and on-target properties was performed. Initially the new molecules were tested for their ability to interact with and inhibit the human recombinant β2 adrenergic and M2 muscarinic receptors, and to reduce the hERG tail current in a patch clamp assay. […] Therefore, we might expect that the new ligands would impair cardiac functionality to a lesser extent than the lead molecule does.

[4] = target: human recombinant β2 adrenergic receptor (Homo sapiens, UniProt P07550); experiment: β2 adrenergic receptor inhibition assay; format: binding; settings: read-out: β2 adrenergic % inh @1 μM
human recombinant β2 adrenergic receptor, sequence (P07550 whole entry): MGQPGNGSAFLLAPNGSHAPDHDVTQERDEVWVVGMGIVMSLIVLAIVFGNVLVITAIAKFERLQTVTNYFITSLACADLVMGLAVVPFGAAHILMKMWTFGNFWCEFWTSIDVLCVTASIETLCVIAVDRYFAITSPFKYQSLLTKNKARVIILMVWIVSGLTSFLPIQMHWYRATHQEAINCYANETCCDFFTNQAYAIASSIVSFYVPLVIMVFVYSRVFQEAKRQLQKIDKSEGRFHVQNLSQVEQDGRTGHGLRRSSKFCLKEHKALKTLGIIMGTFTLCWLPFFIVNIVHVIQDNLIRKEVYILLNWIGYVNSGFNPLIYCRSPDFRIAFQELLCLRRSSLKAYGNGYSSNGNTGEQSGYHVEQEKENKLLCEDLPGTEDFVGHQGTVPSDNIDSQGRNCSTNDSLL
Experimental: as §1, §2

hERG = hERG (Homo sapiens, UniProt Q12809); experiment: hERG tail current inhibition in a patch clamp assay; format: cell-based; settings: read-out: hERG % inh @10 μM
hERG, sequence (Q12809 whole entry): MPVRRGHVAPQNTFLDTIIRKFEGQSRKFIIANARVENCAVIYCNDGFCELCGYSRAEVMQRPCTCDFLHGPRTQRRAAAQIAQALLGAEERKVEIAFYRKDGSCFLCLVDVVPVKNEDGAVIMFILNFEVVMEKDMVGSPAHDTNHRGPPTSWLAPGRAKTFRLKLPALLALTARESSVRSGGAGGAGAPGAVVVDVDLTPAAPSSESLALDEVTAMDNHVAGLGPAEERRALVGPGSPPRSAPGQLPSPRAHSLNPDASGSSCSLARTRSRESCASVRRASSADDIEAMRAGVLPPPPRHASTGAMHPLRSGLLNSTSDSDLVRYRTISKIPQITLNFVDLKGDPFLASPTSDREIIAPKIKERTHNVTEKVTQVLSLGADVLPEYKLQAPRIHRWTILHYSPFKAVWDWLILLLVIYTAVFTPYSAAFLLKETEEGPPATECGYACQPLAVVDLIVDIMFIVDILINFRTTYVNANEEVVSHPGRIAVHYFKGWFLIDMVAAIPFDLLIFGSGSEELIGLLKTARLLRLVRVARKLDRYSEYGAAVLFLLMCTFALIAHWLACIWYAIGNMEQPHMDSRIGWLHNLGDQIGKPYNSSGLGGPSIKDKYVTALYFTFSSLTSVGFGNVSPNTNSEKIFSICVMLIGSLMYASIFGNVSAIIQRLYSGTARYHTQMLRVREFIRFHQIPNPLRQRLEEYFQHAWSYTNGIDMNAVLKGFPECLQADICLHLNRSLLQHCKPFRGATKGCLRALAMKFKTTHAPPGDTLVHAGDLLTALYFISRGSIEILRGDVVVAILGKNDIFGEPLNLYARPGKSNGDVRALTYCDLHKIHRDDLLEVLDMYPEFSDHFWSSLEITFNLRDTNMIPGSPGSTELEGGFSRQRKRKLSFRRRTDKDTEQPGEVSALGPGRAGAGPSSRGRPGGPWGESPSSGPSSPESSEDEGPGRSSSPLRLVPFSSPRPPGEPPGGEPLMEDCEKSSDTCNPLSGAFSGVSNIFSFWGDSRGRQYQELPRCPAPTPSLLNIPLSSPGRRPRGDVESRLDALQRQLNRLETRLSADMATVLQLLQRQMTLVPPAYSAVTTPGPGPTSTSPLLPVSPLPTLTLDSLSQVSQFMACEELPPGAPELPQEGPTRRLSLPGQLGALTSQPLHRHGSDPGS
Experimental: as §1, §2

[5] = test system: h-Tel quadruplex DNA sequence 5'-d[AGGG(TTAGGG)3]-3'; experiment: SPR binding to quadruplex DNA; parameters: species or system human; settings: for Quadruplex/duplex ratio: quadruplex vs duplex affinity
Experimental: (§3) Oligonucleotides 5’-biotin-d [AG3 (T2AG3)3] quadruplex and 5’-biotin-CGA3T3C(CT)2GA3T3CG were purchased from Midland Certified Reagent Company (Midland, TX). Purification of DNA, preparation of solutions, collection of data, and analysis of results were conducted according to methods adopted in an earlier study.
(§4) This technique takes advantage of the refractive index change elicits by the binding of the drug with the h-Tel quadruplex DNA sequence 5’-d[AGGG(TTAGGG)3]-3’ or an alternating hairpin duplex sequence immobilized on a sensor chip surface.

[6] = test system: alternating hairpin duplex sequence 5'-biotin-CGA3T3C(CT)2GA3T3CG; experiment: SPR binding to duplex DNA
Experimental: as §3, §4

[7] = test system: human colon cancer cell line HT-29; experiment: MTT proliferation assay, HT-29; format: cell-based; settings: 96 hours
Experimental: (§5) Normal WI-38 diploid human lung fibroblasts and the human colorectal adenocarcinoma HT29 cells were obtained from American Type Culture Collection (Manassas, VA, USA). BJ fibroblasts expressing hTERT and SV40 early region (BJ-EHLT) were obtained as previously reported. Cells were grown in Dulbecco Modified Eagle Medium (D-MEM, Invitrogen Carlsbad, CA, USA) supplemented with 10% fetal calf serum, 2 mM L-glutamin and antibiotics.
(§6) MTT (3-(4,5-Dimethylthiazol-2-yl)-2,5-diphenyltetrazolium Bromide) assay was performed in treated and untreated cells for 96 hours. Cells were incubated with MTT solution (Sigma-Aldrich), and the purple formazan crystals were dissolved in isopropanol. Optical densities (OD) at 540 nm was determined on microplate reader.
(§7) Firstly, we investigated if they were able to efficiently promote growth inhibition of tumor cells without affecting the survival of normal cells in vitro. In Table 1 we report for each compound the concentration causing 50% of growth inhibition (GI50) calculated by performing a proliferation assay in the human colon cancer cell line HT-29 or in the human ‘normal’ lung WI-38 cells. […] On the basis of results described so far, we decided to exclude from the further analysis ligand 10 for its high value of hERG inhibition (95%) (Table 1).

[8] = test system: human 'normal' lung WI-38 cells; experiment: MTT proliferation assay, WI-38; format: cell-based; settings: for Ratio PMX WI38/HT29: GI50 WI-38 / GI50 HT-29; for GI50: Homo sapiens, WI-38, MTT, 96 hours
Experimental: as §5, §6, §7

BJ-EHLT fibroblasts = experiment: γ-H2AX/TRF1 colocalization (TIFs, telomere uncapping); format: cell-based, human; settings: for mean TIFs per nucleus / telomere dysfunction (TIF formation), in words: 24 hrs; for telomere dysfunction (TIF formation), in words: 0.1 and 0.5 μM
Experimental: Cells were fixed in 2% formaldehyde and permeabilized in 0.25% Triton X100 in PBS for 5 min at room temperature. For immunolabeling, cells were incubated with primary antibody, then washed in PBS and incubated with the secondary antibodies. The following primary antibodies were used: pAb and mAb anti-TRF1(Abcam Ltd.; Cambridge UK); mAb (Upstate, Lake Placid, NY) and pAb anti-γH2AX (Abcam); mAb anti-PCNA (Sigma Chemicals, Milano, Italy). The following secondary antibody were used: TRITC conjugated Goat anti Rabbit, FITC conjugated Goat anti Mouse (Jackson ImmunoResearch Europe Ltd., Suffolk, UK). Fluorescence signals were recorded by using a Leica DMIRE2 microscope equipped with a Leica DFC 350FX camera and elaborated by a Leica FW4000 deconvolution software (Leica, Solms, Germany). This system permits to focus single planes inside the cell generating 3D highresolution images. For quantitative analysis of γH2AX positivity, 200 cells on triplicate slices were scored. For TIFs analysis, in each nucleus a single plane was analyzed and at least 50 nuclei per sample were scored.
Unfortunately, we were not able to test compounds 4, 5 and the 0,5 μM dose of 3 as they were fluorescent in both red and green channels. […] To ascertain whether γ-H2AX was phosphorylated in response to dysfunctional telomeres, double immunofluorescence experiments were processed by confocal microscopy. We observed that some of the γ-H2AX foci induced by G4-ligands colocalized with TRF1, a good marker for interphase telomeres, forming the so-called telomere dysfunction-induced foci (TIFs) (Figure 2B).
Figure 2 DNA damage activation at telomeres. BJ-EHLT fibroblasts were treated for 24 hrs with compound 1 and the indicated ligands at the doses 0.1 (light-grey bars) and 0.5 μM (dark-grey bars). Cells were processed for immunofluorescence (IF) using antibodies against γ-H2AX and TRF1 to mark DNA damage and telomeres respectively. Percentages of γ-H2AX- (A) and TIF-positive (B) treated and untreated cells are reported in the histograms. (C) Mean number of TIFs in the indicated samples. Cells with four or more γ-H2AX/TRF1 foci were scored as TIF positive. Error bars indicate the standard deviation. (D) Representative images of IF of untreated and 1, 3, 6 and 8-treated BJ-EHLT cells. Enlarged views of TIFs are reported on the right of the merged images. The images were acquired with a Leica Deconvolution microscope (magnification 100x). (E) Cells treated as in (A) were processed for IF of γ-H2AX and PCNA to mark replicating cells. Percentage of γ-H2AX+/PCNA- or γ-H2AX+/PCNA + nuclei in the indicated samples are reported in the histograms.

SMILES	K [1]	K [2]	inhibition at 1 µM [3]	inhibition at 1 µM [4]	inhibition at 10 µM (hERG)	Quadruplex DNA affinity K [5]	Quadruplex/duplex ratio [5]	Duplex DNA affinity K [6]	GI50 [7]	Ratio PMX WI38/HT29 [8]	GI50 [8]	mean TIFs per nucleus (BJ-EHLT fibroblasts)	percentage of cells with more than four γ-H2AX/TRF1 colocalizations (TIF-positive) (BJ-EHLT fibroblasts; 24 hrs, 0,5 μM)	percentage of cells with more than four γ-H2AX/TRF1 colocalizations (TIF-positive) (BJ-EHLT fibroblasts; 24 hrs, 0,1 μM)	telomere dysfunction (TIF formation), in words (BJ-EHLT fibroblasts)
CN1c2ccccc2-c2c3c1cccc3c1ccc(CN)cc1[n+]2C [Compound 4]	7.4e+06 M⁻¹	1.1e+06 M⁻¹	65%	1%	15%	7.4e+06 M⁻¹	6,7	1,1 x10^6 M^−1	1630 nM	10,6	17300 nM	–	–	–	–
CN1c2ccccc2-c2c3c1cccc3c1ccc(NC(=O)CO)cc1[n+]2C [Compound 6]	1.47e+07 M⁻¹	700000 M⁻¹	77%	8%	35%	14,7 x10^6 M^−1	21	0,7 x10^6 M^−1	260 nM	85,7	22300 nM	about seven	~40%	–	–
CN1c2ccccc2-c2c3c1cccc3c1ccc(NC(=O)CC[S+](C)[O-])cc1[n+]2C (centres unmarked) [Compound 5]	–	–	93%	10%	16%	2.3e+07 M⁻¹	>230	<0,1 x10^6 M^−1	1830 nM	–	> 30000 nM	–	–	–	–
CN1c2ccccc2-c2c3c1cccc3c1ccc(NC(=O)C3CC3)cc1[n+]2C [Compound 3]	2.2e+07 M⁻¹	100000 M⁻¹	98%	13%	74%	22,0 x10^6 M^−1	244,4	0,1 x10^6 M^−1	700 nM	18,5	13000 nM	about seven	–	about 18%	–
CN1c2ccccc2-c2c3c1cccc3c1ccc(NC(=O)CCS(C)=O)cc1[n+]2C (centres unmarked)	2.3e+07 M⁻¹	< 100000 M⁻¹	–	–	–	–	–	–	–	–	–	–	–	–	–
C[n+]1c2c3c(cccc3c3ccccc31)Oc1ccccc1-2 [Compound 9]	1.5e+06 M⁻¹	< 100000 M⁻¹	24%	–	86%	1,5 x10^6 M^−1	>15	<0,1 x10^6 M^−1	210 nM	24,3	5110 nM	–	–	–	did not cause significant telomere dysfunction
COC(=O)c1ccc2c(c1)c1cccc3c1c([n+]2C)-c1ccccc1N3C [Compound 2]	4.2e+06 M⁻¹	200000 M⁻¹	98%	11%	41%	4.2e+06 M⁻¹	21	0,2 x10^6 M^−1	100 nM	31,1	3110 nM	–	–	–	did not cause significant telomere dysfunction
C[n+]1c2c3c(cccc3c3ccccc31)Sc1ccccc1-2 [Compound 10]	1e+06 M⁻¹	< 100000 M⁻¹	49%	–	95%	1,0 x10^6 M^−1	>10	<0,1 x10^6 M^−1	130 nM	47,5	6170 nM	–	–	–	–
